Values joined by “and” are separate entries in the source; they are usually repeats but may differ in a detail not shown here. Equal values may be shown once.
Columns and labels:
Assay in all cases: Kinase selectivity profile assay
Assay type in all cases: biochemical
ULK1 = biological target: T1, ULK1 (Homo sapiens, UniProt O75385); conditions: 500 nM; relative to DMSO; read-out: Residual enzymatic activity
T1 construct: purchased Reaction Biology Corporation
How it was run: (§1)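 Radiometric kinase assay run by a standard protocol. Unbound phosphate was removed by washing filters in phosphoric acid, and product radioactivity gave percent remaining kinase activity versus DMSO vehicle reactions. Run in duplicate.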

HIPK3 = biological target: T2, HIPK3 (Homo sapiens, UniProt Q9H422); conditions: 500 nM; relative to DMSO; read-out: Residual enzymatic activity
T2 construct: purchased Reaction Biology Corporation
T2 sequence (Q9H422 whole entry): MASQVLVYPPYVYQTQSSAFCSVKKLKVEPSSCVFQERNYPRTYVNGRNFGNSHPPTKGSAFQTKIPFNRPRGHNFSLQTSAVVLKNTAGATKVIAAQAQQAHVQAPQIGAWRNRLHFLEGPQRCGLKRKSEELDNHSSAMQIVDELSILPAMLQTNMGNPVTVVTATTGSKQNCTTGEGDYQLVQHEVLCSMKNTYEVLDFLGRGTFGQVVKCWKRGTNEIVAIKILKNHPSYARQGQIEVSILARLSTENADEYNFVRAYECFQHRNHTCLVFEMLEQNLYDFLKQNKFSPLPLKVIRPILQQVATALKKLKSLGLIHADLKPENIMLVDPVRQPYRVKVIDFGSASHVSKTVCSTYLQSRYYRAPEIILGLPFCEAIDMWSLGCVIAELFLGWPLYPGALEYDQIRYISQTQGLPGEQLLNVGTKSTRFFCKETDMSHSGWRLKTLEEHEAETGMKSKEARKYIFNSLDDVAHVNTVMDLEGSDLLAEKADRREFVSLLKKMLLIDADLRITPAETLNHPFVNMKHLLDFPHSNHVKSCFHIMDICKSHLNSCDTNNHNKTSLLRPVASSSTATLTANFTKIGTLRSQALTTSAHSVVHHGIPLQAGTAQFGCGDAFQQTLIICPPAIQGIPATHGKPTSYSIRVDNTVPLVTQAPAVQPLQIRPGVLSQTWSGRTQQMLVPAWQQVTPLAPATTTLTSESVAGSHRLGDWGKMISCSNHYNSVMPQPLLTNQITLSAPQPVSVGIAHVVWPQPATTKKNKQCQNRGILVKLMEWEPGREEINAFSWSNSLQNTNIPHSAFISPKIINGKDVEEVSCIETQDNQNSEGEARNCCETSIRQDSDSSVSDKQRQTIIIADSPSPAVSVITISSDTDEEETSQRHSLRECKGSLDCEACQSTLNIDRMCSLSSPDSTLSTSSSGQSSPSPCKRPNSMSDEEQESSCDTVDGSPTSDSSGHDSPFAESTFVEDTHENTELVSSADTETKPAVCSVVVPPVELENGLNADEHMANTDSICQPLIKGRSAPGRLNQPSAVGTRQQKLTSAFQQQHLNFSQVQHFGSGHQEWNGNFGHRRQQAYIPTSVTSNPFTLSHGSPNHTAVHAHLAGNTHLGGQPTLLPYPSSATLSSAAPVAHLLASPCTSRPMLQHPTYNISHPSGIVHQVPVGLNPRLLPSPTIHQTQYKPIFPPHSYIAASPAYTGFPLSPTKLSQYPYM
How it was run: as §1

TESK1 = biological target: T3, TESK1 (Homo sapiens, UniProt Q15569); conditions: 500 nM; relative to DMSO; read-out: Residual enzymatic activity
T3 construct: purchased Reaction Biology Corporation
T3 sequence (Q15569 whole entry): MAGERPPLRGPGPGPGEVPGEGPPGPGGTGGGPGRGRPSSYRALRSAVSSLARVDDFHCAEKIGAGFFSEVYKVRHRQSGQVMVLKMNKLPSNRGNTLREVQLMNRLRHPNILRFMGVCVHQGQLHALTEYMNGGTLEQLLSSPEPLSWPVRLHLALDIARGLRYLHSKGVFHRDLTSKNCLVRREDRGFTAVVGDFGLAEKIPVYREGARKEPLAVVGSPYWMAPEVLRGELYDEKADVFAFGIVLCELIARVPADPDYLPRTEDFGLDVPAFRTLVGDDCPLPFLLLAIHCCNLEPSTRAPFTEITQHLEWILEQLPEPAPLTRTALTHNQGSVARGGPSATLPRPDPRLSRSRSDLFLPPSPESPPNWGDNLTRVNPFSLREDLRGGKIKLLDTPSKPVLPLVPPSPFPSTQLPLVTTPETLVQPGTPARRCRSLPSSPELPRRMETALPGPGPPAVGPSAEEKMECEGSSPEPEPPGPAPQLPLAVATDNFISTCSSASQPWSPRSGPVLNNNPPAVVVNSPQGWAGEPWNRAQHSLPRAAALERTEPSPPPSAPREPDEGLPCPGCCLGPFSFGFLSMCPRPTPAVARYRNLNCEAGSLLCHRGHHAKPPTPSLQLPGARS
How it was run: as §1

LATS2 = biological target: T4, LATS2 (Homo sapiens, UniProt Q9NRM7); conditions: 500 nM; relative to DMSO; read-out: Residual enzymatic activity
T4 construct: purchased Reaction Biology Corporation
T4 sequence (Q9NRM7 whole entry): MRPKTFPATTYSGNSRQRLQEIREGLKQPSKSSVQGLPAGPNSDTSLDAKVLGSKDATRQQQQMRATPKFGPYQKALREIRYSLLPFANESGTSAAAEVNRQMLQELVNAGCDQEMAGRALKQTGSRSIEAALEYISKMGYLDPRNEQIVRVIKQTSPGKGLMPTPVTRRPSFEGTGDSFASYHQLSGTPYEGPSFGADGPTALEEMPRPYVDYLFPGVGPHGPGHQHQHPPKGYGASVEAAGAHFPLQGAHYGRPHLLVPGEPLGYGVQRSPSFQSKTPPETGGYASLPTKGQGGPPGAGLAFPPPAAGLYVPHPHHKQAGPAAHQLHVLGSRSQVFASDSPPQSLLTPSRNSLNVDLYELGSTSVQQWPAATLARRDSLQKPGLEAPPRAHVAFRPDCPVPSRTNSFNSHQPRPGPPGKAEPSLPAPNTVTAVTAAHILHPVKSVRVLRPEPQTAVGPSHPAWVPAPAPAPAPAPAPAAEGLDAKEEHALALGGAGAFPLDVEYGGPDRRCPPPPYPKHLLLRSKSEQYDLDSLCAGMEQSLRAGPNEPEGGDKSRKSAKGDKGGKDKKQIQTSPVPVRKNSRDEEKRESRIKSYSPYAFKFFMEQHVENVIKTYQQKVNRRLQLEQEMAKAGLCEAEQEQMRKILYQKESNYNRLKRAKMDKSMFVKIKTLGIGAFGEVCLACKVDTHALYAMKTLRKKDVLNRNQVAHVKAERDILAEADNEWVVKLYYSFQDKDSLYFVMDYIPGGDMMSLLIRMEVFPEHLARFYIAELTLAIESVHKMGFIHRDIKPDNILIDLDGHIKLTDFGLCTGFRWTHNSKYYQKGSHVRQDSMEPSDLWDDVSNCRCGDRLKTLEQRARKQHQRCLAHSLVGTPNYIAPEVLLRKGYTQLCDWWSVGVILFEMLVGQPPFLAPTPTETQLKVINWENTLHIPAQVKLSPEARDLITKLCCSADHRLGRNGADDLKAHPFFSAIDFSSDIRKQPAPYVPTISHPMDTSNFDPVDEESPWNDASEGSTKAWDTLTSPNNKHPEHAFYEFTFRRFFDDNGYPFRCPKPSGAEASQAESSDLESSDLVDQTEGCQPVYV
How it was run: as §1

BRK = biological target: T5, BRK (Homo sapiens, UniProt Q13882); conditions: 500 nM, relative to DMSO; for remaining activity at 0.5 µM: read-out: Residual enzymatic activity
T5 construct: purchased Reaction Biology Corporation
T5 sequence (Q13882 whole entry): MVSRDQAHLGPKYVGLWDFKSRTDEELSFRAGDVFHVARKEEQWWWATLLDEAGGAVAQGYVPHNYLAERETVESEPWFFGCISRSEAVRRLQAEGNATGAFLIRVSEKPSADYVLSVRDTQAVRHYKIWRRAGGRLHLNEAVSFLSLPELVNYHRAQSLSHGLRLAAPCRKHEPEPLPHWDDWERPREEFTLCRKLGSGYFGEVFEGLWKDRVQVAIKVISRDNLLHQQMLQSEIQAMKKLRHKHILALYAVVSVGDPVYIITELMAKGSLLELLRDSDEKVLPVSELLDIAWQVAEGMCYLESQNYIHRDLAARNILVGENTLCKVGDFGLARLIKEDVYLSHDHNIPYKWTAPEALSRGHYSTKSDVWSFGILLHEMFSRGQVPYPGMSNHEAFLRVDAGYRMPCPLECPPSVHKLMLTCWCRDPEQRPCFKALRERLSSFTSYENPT
How it was run: as §1

CK1a1 = biological target: T6, CK1a1 (Homo sapiens, UniProt P48729); conditions: 500 nM; relative to DMSO; read-out: Residual enzymatic activity
T6 construct: purchased Reaction Biology Corporation
How it was run: as §1

MYLK3 = biological target: T7, MYLK3 (Homo sapiens, UniProt Q32MK0); conditions: 500 nM; relative to DMSO; read-out: Residual enzymatic activity
T7 construct: purchased Reaction Biology Corporation
How it was run: as §1

EPHB1 = biological target: T8, EPHB1 (Homo sapiens, UniProt P54762); conditions: for remaining activity at 0.5 µM: 500 nM, relative to DMSO, read-out: Residual enzymatic activity
T8 construct: purchased Reaction Biology Corporation (assay service)
T8 sequence (P54762 18-984): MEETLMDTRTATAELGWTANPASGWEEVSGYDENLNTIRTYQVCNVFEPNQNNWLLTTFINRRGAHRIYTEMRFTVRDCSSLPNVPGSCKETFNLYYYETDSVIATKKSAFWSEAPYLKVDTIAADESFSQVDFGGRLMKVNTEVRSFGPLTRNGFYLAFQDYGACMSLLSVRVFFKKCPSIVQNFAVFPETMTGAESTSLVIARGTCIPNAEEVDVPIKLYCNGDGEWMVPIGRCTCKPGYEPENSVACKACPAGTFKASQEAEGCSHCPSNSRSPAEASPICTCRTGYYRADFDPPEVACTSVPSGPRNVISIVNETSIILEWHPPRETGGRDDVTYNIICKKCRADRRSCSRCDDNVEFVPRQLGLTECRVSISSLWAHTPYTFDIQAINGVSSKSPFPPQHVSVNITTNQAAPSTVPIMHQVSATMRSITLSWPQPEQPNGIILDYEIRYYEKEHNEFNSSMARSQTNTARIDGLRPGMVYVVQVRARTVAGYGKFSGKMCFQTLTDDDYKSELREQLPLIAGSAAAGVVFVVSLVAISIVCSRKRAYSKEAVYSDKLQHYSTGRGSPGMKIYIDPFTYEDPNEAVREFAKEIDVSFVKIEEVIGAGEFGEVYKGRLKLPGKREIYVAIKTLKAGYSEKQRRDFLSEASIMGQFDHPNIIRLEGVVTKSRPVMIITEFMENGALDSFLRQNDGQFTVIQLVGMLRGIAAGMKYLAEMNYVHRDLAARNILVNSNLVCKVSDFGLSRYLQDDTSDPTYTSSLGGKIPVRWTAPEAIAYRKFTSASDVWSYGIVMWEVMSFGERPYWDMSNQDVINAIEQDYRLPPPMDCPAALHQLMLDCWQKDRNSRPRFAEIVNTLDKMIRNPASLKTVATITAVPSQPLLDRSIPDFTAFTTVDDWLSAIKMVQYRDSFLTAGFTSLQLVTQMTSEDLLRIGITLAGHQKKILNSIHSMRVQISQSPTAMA
How it was run: as §1

AKT1 = biological target: T9, AKT1 (Homo sapiens, UniProt P31749); conditions: 500 nM; relative to DMSO; read-out: Residual enzymatic activity
T9 construct: purchased Reaction Biology Corporation
How it was run: as §1

RSK3 = biological target: T10, RSK3 (Homo sapiens, UniProt Q15349); conditions: 500 nM; relative to DMSO; read-out: Residual enzymatic activity
T10 construct: purchased Reaction Biology Corporation
T10 sequence (Q15349 whole entry): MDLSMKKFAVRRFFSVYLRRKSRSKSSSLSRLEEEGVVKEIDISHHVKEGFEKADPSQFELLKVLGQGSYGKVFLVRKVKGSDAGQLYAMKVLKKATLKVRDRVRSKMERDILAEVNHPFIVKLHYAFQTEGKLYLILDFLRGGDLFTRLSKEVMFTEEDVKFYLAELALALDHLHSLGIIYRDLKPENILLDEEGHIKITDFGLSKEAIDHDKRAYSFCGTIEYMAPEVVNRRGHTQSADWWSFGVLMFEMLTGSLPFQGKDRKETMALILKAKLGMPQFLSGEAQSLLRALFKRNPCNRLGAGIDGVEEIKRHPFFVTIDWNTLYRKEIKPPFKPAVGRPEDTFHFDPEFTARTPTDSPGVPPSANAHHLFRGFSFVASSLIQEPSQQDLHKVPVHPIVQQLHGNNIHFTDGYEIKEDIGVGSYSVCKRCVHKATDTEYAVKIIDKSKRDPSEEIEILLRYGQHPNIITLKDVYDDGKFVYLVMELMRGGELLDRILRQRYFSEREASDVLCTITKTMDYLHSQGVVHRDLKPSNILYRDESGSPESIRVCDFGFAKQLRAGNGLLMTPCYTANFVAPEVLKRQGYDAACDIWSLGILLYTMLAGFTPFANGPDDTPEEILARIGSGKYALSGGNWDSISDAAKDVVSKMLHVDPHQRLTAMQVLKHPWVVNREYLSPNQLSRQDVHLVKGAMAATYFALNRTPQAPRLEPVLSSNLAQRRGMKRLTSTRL
How it was run: as §1

TTBK1 = biological target: T11, TTBK1 (Homo sapiens, UniProt Q5TCY1); conditions: 500 nM; relative to DMSO; read-out: Residual enzymatic activity
T11 construct: purchased Reaction Biology Corporation
How it was run: as §1

OSR1/OXSR1 = biological target: T12, OSR1/OXSR1 (Homo sapiens, UniProt O95747); conditions: 500 nM; relative to DMSO; read-out: Residual enzymatic activity
T12 construct: purchased Reaction Biology Corporation
How it was run: as §1

RSK4 = biological target: T13, RSK4 (Homo sapiens, UniProt Q9UK32); conditions: 500 nM; relative to DMSO; read-out: Residual enzymatic activity
T13 construct: purchased Reaction Biology Corporation
How it was run: as §1

STK38/NDR1 = biological target: T14, STK38/NDR1 (Homo sapiens, UniProt Q15208); conditions: 500 nM; relative to DMSO; read-out: Residual enzymatic activity
T14 construct: purchased Reaction Biology Corporation
How it was run: as §1

CLK3 = biological target: T15, CLK3 (Homo sapiens, UniProt P49761); conditions: 500 nM; relative to DMSO; read-out: Residual enzymatic activity
T15 construct: purchased Reaction Biology Corporation
How it was run: as §1

PKCa = biological target: T16, PKCa (Homo sapiens, UniProt P17252); conditions: 500 nM; relative to DMSO; read-out: Residual enzymatic activity
T16 construct: purchased Reaction Biology Corporation
How it was run: as §1

Compound	remaining activity at 0.5 µM (ULK1)	remaining activity at 0.5 µM (HIPK3)	remaining activity at 0.5 µM (TESK1)	remaining activity at 0.5 µM (LATS2)	Residual enzymatic activity (BRK)	remaining activity at 0.5 µM (BRK)	remaining activity at 0.5 µM (CK1a1)	remaining activity at 0.5 µM (MYLK3)	remaining activity at 0.5 µM (EPHB1)	IC50 (EPHB1; 10-dose mode, threefold serial dilution from 10 μM)	remaining activity at 0.5 µM (AKT1)	remaining activity at 0.5 µM (RSK3)	remaining activity at 0.5 µM (TTBK1)	remaining activity at 0.5 µM (OSR1/OXSR1)	remaining activity at 0.5 µM (RSK4)	remaining activity at 0.5 µM (STK38/NDR1)	remaining activity at 0.5 µM (CLK3)	remaining activity at 0.5 µM (PKCa)
COc1cc(Nc2ncnc(Nc3cc4c(cn3)NC(=O)C(C)(C)O4)n2)cc(OC)c1OC [MT-SYK-03]	62.2%	110%	94.5%	85.3%	54.2%	> 54%	101%	95.9%	9.6%	25 nM and 24.7 nM	101%	91.6%	108%	98.2%	99.7%	112%	103%	92.3%
COc1cc(Nc2ncc(F)c(Nc3ccc4c(n3)NC(=O)C(C)(C)O4)n2)cc(OC)c1OC [R406, reference compound]	8.8%	96.4%	85.7%	51.2%		27.6%	95.5%	96.4%	-4%		99.4%	52%	98.5%	97.2%	45.6%	70.4%	89.4%	58.3%

— paper PMC8632988, “Inhibition of SYK and cSrc kinases can protect bone and cartilage in preclinical models of osteoarthritis and rheumatoid arthritis” (Scientific Reports, 2021)
